Columns and labels:
Type in all cases: in vivo
[1] = tested on: western flower thrips (Frankliniella occidentalis); assay: Test E: control of western flower thrips on Soleil bean plant, contact and/or systemic; settings: adult thrips, assessed after 6 days, replicated three times
Outline: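 A 5-7 day old Soleil bean plant was sprayed with compound at 250 or 50 ppm in 10% acetone/water with 300 ppm X-77 surfactant, dried 1 hour, then infested with 22-27 adult thrips. After 6 days at 25° C., 45-55% relative humidity, mortality and plant damage were rated; three replicates.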

[2] = tested on: fall armyworm (Spodoptera frugiperda); assay: Test B: control of fall armyworm on corn (maize) plant, foliar spray; settings: sprayed at 50 ppm; 1-day-old larvae on corn; replicated three times
Experimental: Test compounds were formulated using a solution containing 10% acetone, 90% water and 300 ppm X-77™ Spreader Lo-Foam Formula non-ionic surfactant containing alkylarylpolyoxyethylene, free fatty acids, glycols and isopropanol (Loveland Industries, Inc. Greeley, Colo., USA). The formulated compounds were applied in 1 mL of liquid through a SUJ2 atomizer nozzle with ⅛ JJ custom body (Spraying Systems Co. Wheaton, Ill., USA) positioned 1.27 cm (0.5 inches) above the top of each test unit. All experimental compounds in these tests were sprayed at 50 ppm, and the test was replicated three times. After spraying of the formulated test compound, each test unit was allowed to dry for 1 h and then a black, screened cap was placed on top. The test units were held for 6 days in a growth chamber at 25° C. and 70% relative humidity. Plant feeding damage was then visually assessed based on foliage consumed and a pest mortality rating was also counted and calculated for each test unit.
For evaluating control of fall armyworm (Spodoptera frugiperda) the test unit consisted of a small open container with a 4-5-day-old corn (maize) plant inside. This was pre-infested (using a core sampler) with 10-15 1-day-old larvae on a piece of insect diet. Test compounds were formulated and sprayed at 50 ppm as described for Test A and replicated three times. After spraying, the test units were maintained in a growth chamber and then the control efficacy was rated for each test unit as described for Test A.

[3] = tested on: diamondback moth (Plutella xylostella); assay: Test A: control of diamondback moth on radish plant, foliar spray; settings: sprayed at 50 ppm; neonate larvae on radish; assessed after 6 days; replicated three times
Outline: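 Radish plants 12–14 days old, pre-infested with about 50 neonate larvae, were sprayed with compound at 50 ppm in 10% acetone/water with 300 ppm X-77 surfactant, in three replicates. Units were held 6 days at 25 °C and 70% RH. Feeding damage was assessed visually and mortality was counted.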

SMILES	control efficacy (feeding damage or mortality): very good to excellent levels ([1]; sprayed at 50 ppm)	control efficacy (feeding damage or mortality): very good to excellent levels ([1]; sprayed at 250 ppm)	control efficacy (feeding damage or mortality): very good to excellent levels [2]	control efficacy (feeding damage or mortality): very good to excellent levels [3]
C[C@@H](NC(=O)c1ccc(C2=NOC(c3cc(Cl)cc(C(F)(F)F)c3)(C(F)(F)F)C2)c2ccccc12)C(=O)NCC1CC1 (stereo partly shown) [Compound 73]	20% or less feeding damage or 80% or more mortality	20% or less feeding damage or 80% or more mortality	20% or less feeding damage or 80% or more mortality	20% or less feeding damage or 80% or more mortality
C[C@@H](NC(=O)c1ccc(C2=NOC(c3cc(Cl)cc(C(F)(F)F)c3)(C(F)(F)F)C2)c2ccccc12)C(N)=O (stereo partly shown) [Compound 74]	20% or less feeding damage or 80% or more mortality	20% or less feeding damage or 80% or more mortality	20% or less feeding damage or 80% or more mortality	20% or less feeding damage or 80% or more mortality
O=C(CNC(=O)c1ccc(C2=NOC(c3cc(Cl)cc(C(F)(F)F)c3)(C(F)(F)F)C2)c2ccccc12)NCC1CC1 (stereo not shown) [Compound 76]	20% or less feeding damage or 80% or more mortality	20% or less feeding damage or 80% or more mortality	20% or less feeding damage or 80% or more mortality	20% or less feeding damage or 80% or more mortality
CC(NC(=O)c1ccc(C2=NOC(c3cc(Cl)cc(C(F)(F)F)c3)(C(F)(F)F)C2)c2ccccc12)C(=O)NC1CC1 (stereo not shown) [Compound 78]	20% or less feeding damage or 80% or more mortality	20% or less feeding damage or 80% or more mortality	20% or less feeding damage or 80% or more mortality	20% or less feeding damage or 80% or more mortality
CC(NC(=O)c1ccc(C2=NOC(c3cc(Cl)cc(C(F)(F)F)c3)(C(F)(F)F)C2)c2ccccc12)C(=O)NCC1CC1 (stereo not shown) [Compound 79]	20% or less feeding damage or 80% or more mortality	20% or less feeding damage or 80% or more mortality	20% or less feeding damage or 80% or more mortality	20% or less feeding damage or 80% or more mortality
C[C@@H](NC(=O)c1ccc(C2=NOC(c3cc(C(F)(F)F)cc(C(F)(F)F)c3)(C(F)(F)F)C2)c2ccccc12)C(=O)NCC1CC1(F)F (stereo partly shown) [Compound 80]	20% or less feeding damage or 80% or more mortality	20% or less feeding damage or 80% or more mortality	20% or less feeding damage or 80% or more mortality	20% or less feeding damage or 80% or more mortality
O=C(CNC(=O)c1ccc(C2=NOC(c3cc(Cl)cc(OC(F)(F)F)c3)(C(F)(F)F)C2)c2ccccc12)NCC1CC1 (stereo not shown) [Compound 81]	20% or less feeding damage or 80% or more mortality		20% or less feeding damage or 80% or more mortality	20% or less feeding damage or 80% or more mortality
O=C(CNC(=O)c1ccc(C2=NOC(c3cc(Cl)cc(OC(F)(F)F)c3)(C(F)(F)F)C2)c2ccccc12)NC1CC1 (stereo not shown) [Compound 82]	20% or less feeding damage or 80% or more mortality		20% or less feeding damage or 80% or more mortality	20% or less feeding damage or 80% or more mortality
C[C@@H](NC(=O)c1ccc(C2=NOC(c3cc(Br)cc(C(F)(F)F)c3)(C(F)(F)F)C2)c2ccccc12)C(N)=O (stereo partly shown) [Compound 83]	20% or less feeding damage or 80% or more mortality		20% or less feeding damage or 80% or more mortality	20% or less feeding damage or 80% or more mortality
O=C(CNC(=O)c1ccc(C2=NOC(c3cc(Cl)cc(OCC(F)(F)F)c3)(C(F)(F)F)C2)c2ccccc12)NCC1CC1 (stereo not shown) [Compound 84]	20% or less feeding damage or 80% or more mortality		20% or less feeding damage or 80% or more mortality	20% or less feeding damage or 80% or more mortality
O=C(CNC(=O)c1ccc(C2=NOC(c3cc(Cl)cc(OCC(F)(F)F)c3)(C(F)(F)F)C2)c2ccccc12)NC1CC1 (stereo not shown) [Compound 85]	20% or less feeding damage or 80% or more mortality		20% or less feeding damage or 80% or more mortality	20% or less feeding damage or 80% or more mortality
CC[C@@H](NC(=O)c1ccc(C2=NOC(c3cc(Cl)cc(C(F)(F)F)c3)(C(F)(F)F)C2)c2ccccc12)C(N)=O (stereo partly shown) [Compound 86]	20% or less feeding damage or 80% or more mortality		20% or less feeding damage or 80% or more mortality	20% or less feeding damage or 80% or more mortality
CC(C)[C@@H](NC(=O)c1ccc(C2=NOC(c3cc(Cl)cc(C(F)(F)F)c3)(C(F)(F)F)C2)c2ccccc12)C(N)=O (stereo partly shown) [Compound 87]	20% or less feeding damage or 80% or more mortality		20% or less feeding damage or 80% or more mortality	20% or less feeding damage or 80% or more mortality
O=C(NCC(=O)N1CCC(F)(F)C1)c1ccc(C2=NOC(c3cc(Cl)cc(Cl)c3)(C(F)(F)F)C2)c2ccccc12 (stereo not shown) [Compound 90]	20% or less feeding damage or 80% or more mortality	20% or less feeding damage or 80% or more mortality	20% or less feeding damage or 80% or more mortality	20% or less feeding damage or 80% or more mortality
CS(=O)(CCNC(=O)c1ccc(C2=NOC(c3cc(Cl)cc(Cl)c3)(C(F)(F)F)C2)c2ccccc12)=NC(=O)C(F)(F)F (stereo not shown) [Compound 93]	20% or less feeding damage or 80% or more mortality	20% or less feeding damage or 80% or more mortality	20% or less feeding damage or 80% or more mortality	20% or less feeding damage or 80% or more mortality
CS(=N)(=O)CCNC(=O)c1ccc(C2=NOC(c3cc(Cl)cc(Cl)c3)(C(F)(F)F)C2)c2ccccc12 (stereo not shown) [Compound 94]	20% or less feeding damage or 80% or more mortality	20% or less feeding damage or 80% or more mortality	20% or less feeding damage or 80% or more mortality	20% or less feeding damage or 80% or more mortality
CNC(=O)[C@H]1CCCN1C(=O)c1ccc(C2=NOC(c3cc(Cl)cc(Cl)c3)(C(F)(F)F)C2)c2ccccc12 (stereo partly shown) [Compound 104]	20% or less feeding damage or 80% or more mortality	20% or less feeding damage or 80% or more mortality	20% or less feeding damage or 80% or more mortality	20% or less feeding damage or 80% or more mortality

From patent US9095138B2, “Isoxazoline insecticides” (E.I. du Pont de Nemours and Company, priority 2007, dated 2015)
